Test results from patent US20260137819A1 (Radionetics Oncology, Inc., priority 2022, published 2026).
Starred links: 1 amine or outer side, 2 acyl side, 3 side chain; linkers in the order of their positions; H or OH if unused. Non-standard residues stand in square brackets, D forms with d. Residues, ends and D or L forms follow the SMILES beside them. Groups on a side chain read outwards from the residue. *: point of attachment. X1 = COc1cc2c(cc1-c1cccc(N*)c1)-c1c(c(C(=O)N3CCOCC3(C)C)nn1-c1cc(Cl)cc(Cl)c1)CO2; DOTA = O=C(O)CN1CCN(CC(=O)O)CCN(CC(=O)*)CCN(CC(=O)O)CC1; Suc = O=C(CCC(=O)[*:2])[*:1]; Sar = CNCC(=O)O

Each compound was assayed against T1, human follicle-stimulating hormone receptor (FSHR) (Homo sapiens, UniProt P23945) (assay: Measurement of agonist cAMP production by activation of human FSHR). Conditions: CHO-K1 human FSHR cells, 30 minutes at 37° C., HTRF cAMP kit; read-out: hFSHR Agonist cAMP EC50.
T1 construct: host or cells: CHO-K1
T1 sequence (P23945 18-695): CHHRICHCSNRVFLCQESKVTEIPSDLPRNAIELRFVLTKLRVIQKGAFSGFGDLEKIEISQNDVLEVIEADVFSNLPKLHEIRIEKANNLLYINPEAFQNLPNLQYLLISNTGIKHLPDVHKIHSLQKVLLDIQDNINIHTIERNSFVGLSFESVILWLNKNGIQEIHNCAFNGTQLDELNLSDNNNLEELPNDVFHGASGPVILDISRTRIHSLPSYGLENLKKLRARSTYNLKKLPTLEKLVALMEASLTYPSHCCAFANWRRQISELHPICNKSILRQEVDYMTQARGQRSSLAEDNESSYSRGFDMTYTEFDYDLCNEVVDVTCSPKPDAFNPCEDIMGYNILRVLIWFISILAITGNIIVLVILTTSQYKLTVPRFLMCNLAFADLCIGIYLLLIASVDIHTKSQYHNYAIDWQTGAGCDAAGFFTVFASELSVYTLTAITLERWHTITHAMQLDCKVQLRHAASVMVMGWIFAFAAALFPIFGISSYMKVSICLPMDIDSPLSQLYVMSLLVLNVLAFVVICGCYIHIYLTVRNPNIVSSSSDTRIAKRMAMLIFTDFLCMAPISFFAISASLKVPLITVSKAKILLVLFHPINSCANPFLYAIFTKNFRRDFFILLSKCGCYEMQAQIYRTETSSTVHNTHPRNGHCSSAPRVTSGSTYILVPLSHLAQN
Format: cell-based
Procedure, shortened: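 cAMP output was measured by HTRF after 30 min at 37 °C agonist exposure (0–10,000 nM final) in stably FSHR-transfected CHO-K1 cells. Lysate cAMP was read off a standard curve and fitted to obtain half-maximal EC50.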

EC50 [nM]	SMILES
10 to 100	COc1cc2c(cc1-c1cccc(NC(=O)CCC(=O)NCCCC[C@@H](NC(=O)[C@@H](C)NC(=O)CN3CCN(CC(=O)O)CCN(CC(=O)O)CCN(CC(=O)O)CC3)C(=O)N[C@H](CCC(=O)O)C(=O)N[C@H](CCC(=O)O)C(=O)N[C@H](CCC(=O)O)C(=O)N[C@H](CCC(=O)O)C(=O)N[C@H](C)C(N)=O)c1)-c1c(c(C(=O)N3CCOCC3(C)C)nn1-c1cc(Cl)cc(Cl)c1)CO2 [Compound 87, 2,2′,2″-(10-((4R,7R,10R,13R,16R,19R,22R)-23-amino-10,13,16,19-tetrakis(2carboxyethyl)-7-(4-(4-((3-(1-(3,5-dichlorophenyl)-3-(3,3-dimethylmorpholine-4-carbonyl)-7-methoxy-1,4-dihydrochromeno|4,3-c|pyrazol-8-yl)phenyl)amino)-4-oxobutanamido)butyl)-4,22-dimethyl-2,5,8,11,14,17,20,23-octaoxo-3,6,9,12,15,18,21-heptaazatricosyl)-1,4,7,10-tetraazacyclododecane-1,4,7-triyl)triacetic acid] ({DOTA}-[dA][dK]([Suc-X1])[dE][dE][dE][dE][dA]-NH2)
10 to 100	COc1cc2c(cc1-c1cccc(NC(=O)CCC(=O)NCCCC[C@@H](NC(=O)[C@@H](CCC(=O)O)NC(=O)[C@@H](CCC(=O)O)NC(=O)[C@@H](C)NC(=O)CN3CCN(CC(=O)O)CCN(CC(=O)O)CCN(CC(=O)O)CC3)C(=O)N[C@H](CCC(=O)O)C(=O)N[C@H](CCC(=O)O)C(=O)N[C@H](C)C(N)=O)c1)-c1c(c(C(=O)N3CCOCC3(C)C)nn1-c1cc(Cl)cc(Cl)c1)CO2 [Compound 88] ({DOTA}-[dA][dE][dE][dK]([Suc-X1])[dE][dE][dA]-NH2)
10 to 100	COc1cc2c(cc1-c1cccc(NC(=O)CCC(=O)NCCCC[C@@H](NC(=O)[C@@H](CCC(=O)O)NC(=O)[C@@H](CCCNC(=N)N)NC(=O)[C@@H](C)NC(=O)CN3CCN(CC(=O)O)CCN(CC(=O)O)CCN(CC(=O)O)CC3)C(=O)N[C@H](CCCNC(=N)N)C(=O)N[C@H](CCCNC(=N)N)C(=O)N[C@H](C)C(N)=O)c1)-c1c(c(C(=O)N3CCOCC3(C)C)nn1-c1cc(Cl)cc(Cl)c1)CO2 [Compound 89] ({DOTA}-[dA][dR][dE][dK]([Suc-X1])[dR][dR][dA]-NH2)
10 to 100	COc1cc2c(cc1-c1cccc(NC(=O)CCC(=O)NCCCC[C@@H](NC(=O)[C@@H](CCC(=O)O)NC(=O)[C@@H](CCC(=O)O)NC(=O)[C@@H](CCC(=O)O)NC(=O)[C@@H](CCC(=O)O)NC(=O)[C@@H](C)NC(=O)CN3CCN(CC(=O)O)CCN(CC(=O)O)CCN(CC(=O)O)CC3)C(=O)N[C@H](C)C(N)=O)c1)-c1c(c(C(=O)N3CCOCC3(C)C)nn1-c1cc(Cl)cc(Cl)c1)CO2 [Compound 90, 2,2′,2″-(10-((4R,7R,10R,13R,16R,19R)-19-(((R)-1-amino-1-oxopropan-2yl)carbamoyl)-7,10,13,16-tetrakis(2-carboxyethyl)-28-((3-(1-(3,5-dichlorophenyl)-3-(3,3-dimethylmorpholine-4-carbonyl)-7-methoxy-1,4-dihydrochromeno|4,3-clpyrazol-8-yl)phenyl)amino)-4-methyl-2,5,8,11,14,17,25,28-octaoxo-3,6,9,12,15,18,24-heptaazaoctacosyl)-1,4,7,10-tetraazacyclododecane-1,4,7-triyl)triacetic acid] ({DOTA}-[dA][dE][dE][dE][dE][dK]([Suc-X1])[dA]-NH2)
10 to 100	COc1cc2c(cc1-c1cccc(NC(=O)CCC(=O)NCCCC[C@@H](NC(=O)[C@@H](C)NC(=O)[C@@H](C)NC(=O)[C@@H](CC(N)=O)NC(=O)[C@@H](CC(=O)O)NC(=O)[C@@H](CCCNC(=N)N)NC(=O)[C@@H](C)NC(=O)CN3CCN(CC(=O)O)CCN(CC(=O)O)CCN(CC(=O)O)CC3)C(N)=O)c1)-c1c(c(C(=O)N3CCOCC3(C)C)nn1-c1cc(Cl)cc(Cl)c1)CO2 [Compound 91] ({DOTA}-[dA][dR][dD][dN][dA][dA][dK]([Suc-X1])-NH2)
10 to 100	COc1cc2c(cc1-c1cccc(NC(=O)CCC(=O)N[C@H](C)C(=O)N[C@H](CCC(=O)O)C(=O)N[C@H](CCC(=O)O)C(=O)N[C@H](CCC(=O)O)C(=O)N[C@H](CCC(=O)O)C(=O)N[C@H](CCCCNC(=O)CN3CCN(CC(=O)O)CCN(CC(=O)O)CCN(CC(=O)O)CC3)C(=O)N[C@H](C)C(N)=O)c1)-c1c(c(C(=O)N3CCOCC3(C)C)nn1-c1cc(Cl)cc(Cl)c1)CO2 [Compound 92, 2,2′,2″-(10-((8R,11R,14R,17R,20R,23R)-8-(((R)-1-amino-1-oxopropan-2yl)carbamoyl)-11,14,17,20-tetrakis(2-carboxyethyl)-28-((3-(1-(3,5-dichlorophenyl)-3-(3,3-dimethylmorpholine-4-carbonyl)-7-methoxy-1,4-dihydrochromeno[4,3-c]pyrazol-8-yl)phenyl)amino)-23-methyl-2,10,13,16,19,22,25,28-octaoxo-3,9,12,15,18,21,24-heptaazaoctacosyl)-1,4,7,10-tetraazacyclododecane-1,4,7-triyl)triacetic acid] ({X1-Suc}-[dA][dE][dE][dE][dE][dK](DOTA)[dA]-NH2)
10 to 100	COc1cc2c(cc1-c1cncc(NC(=O)CCNC(=O)[C@@H](CC(=O)O)NC(=O)[C@@H](CC(=O)O)NC(=O)CC[C@@H](NC(=O)CN3CCN(CC(=O)O)CCN(CC(=O)O)CCN(CC(=O)O)CC3)C(=O)O)c1)-c1c(c(C(=O)N3CCOCC3(C)C)nn1-c1cc(Cl)cc(Cl)c1)CO2 [Compound 93]
10 to 100	COc1cc2c(cc1-c1cncc(NC(=O)CCNC(=O)[C@@H](CC(=O)O)NC(=O)[C@@H](CC(=O)O)NC(=O)CN3CCN(CC(=O)O)CCN(CC(=O)O)CCN(CC(=O)O)CC3)c1)-c1c(c(C(=O)N3CCOCC3(C)C)nn1-c1cc(Cl)cc(Cl)c1)CO2 [Compound 94]
10 to 100	COc1cc2c(cc1-c1cccc(NC(=O)CCC(=O)NCCCC[C@@H](NC(=O)[C@@H](CO)NC(=O)[C@@H](CC(N)=O)NC(=O)[C@@H](C)NC(=O)CN3CCN(CC(=O)O)CCN(CC(=O)O)CCN(CC(=O)O)CC3)C(=O)N[C@H](CC(N)=O)C(=O)N[C@H](CO)C(=O)N[C@H](C)C(N)=O)c1)-c1c(c(C(=O)N3CCOCC3(C)C)nn1-c1cc(Cl)cc(Cl)c1)CO2 [Compound 97] ({DOTA}-[dA][dN][dS][dK]([Suc-X1])[dN][dS][dA]-NH2)
10 to 100	COc1cc2c(cc1-c1cccc(NC(=O)CCC(=O)N(C)CC(=O)N(C)CC(=O)N(C)CC(=O)N[C@H](CCCCNC(=O)CN3CCN(CC(=O)O)CCN(CC(=O)O)CCN(CC(=O)O)CC3)C(=O)N[C@H](CCC(=O)O)C(=O)N[C@H](Cc3ccc(O)cc3)C(=O)N[C@H](CCCCN)C(=O)N[C@H](CCC(=O)O)C(=O)N[C@H](CCC(=O)O)C(=O)N[C@H](CCC(=O)O)C(=O)N[C@H](CCC(=O)O)C(=O)N[C@H](CCCCN)C(N)=O)c1)-c1c(c(C(=O)N3CCOCC3(C)C)nn1-c1cc(Cl)cc(Cl)c1)CO2 [Compound 98] ({X1-Suc}-[Sar][Sar][Sar][dK](DOTA)[dE][dY][dK][dE][dE][dE][dE][dK]-NH2)
10 to 100	COc1cc2c(cc1-c1cncc(NC(=O)CCNC(=O)[C@@H](CC(=O)O)NC(=O)[C@@H](CC(=O)O)NC(=O)[C@H](N)CCCNC(=O)CN3CCN(CC(=O)O)CCN(CC(=O)O)CCN(CC(=O)O)CC3)c1)-c1c(c(C(=O)N3CCOCC3(C)C)nn1-c1cc(Cl)cc(Cl)c1)CO2 [Compound 99, 2,2′,2″-(10-((7R,10R,13R)-7-amino-10,13-bis(carboxymethyl)-18-((5-(1-(3,5dichlorophenyl)-3-(3,3-dimethylmorpholine-4-carbonyl)-7-methoxy-1,4-dihydrochromeno|4,3-c|pyrazol-8-yl)pyridin-3-yl)amino)-2,8,11,14,18-pentaoxo-3,9,12,15-tetraazaoctadecyl)-1,4,7,10-tetraazacyclododecane-1,4,7-triyl)triacetic acid]

Same assay, conditions: hFSHR Agonist cAMP EC50, CHO-K1 human FSHR cells, 30 minutes at 37° C., HTRF cAMP kit

SMILES	EC50 [nM]
COc1cc2c(cc1-c1cccc(NC(=O)CCC(=O)NCCCC[C@@H](NC(=O)[C@@H](C)NC(=O)[C@@H](CCC(=O)O)NC(=O)[C@@H](C)NC(=O)[C@@H](CCC(=O)O)NC(=O)[C@@H](C)NC(=O)CN3CCN(CC(=O)O)CCN(CC(=O)O)CCN(CC(=O)O)CC3)C(=O)N[C@H](C)C(N)=O)c1)-c1c(c(C(=O)N3CCOCC3(C)C)nn1-c1cc(Cl)cc(Cl)c1)CO2 [Compound 95]	10 to 100
